Assay results from ChEMBL document CHEMBL5608246, “Membrane-Targeting Amphiphilic Honokiol Derivatives Containing an Oxazole Moiety as Potential Antibacterials against Methicillin-Resistant Staphylococcus aureus” (J Med Chem, 2024).
Values after ≈ are worked out from the molar mass of the structure shown.

What was measured:
Staphylococcus aureus [1] = experiment: Antibacterial activity against Staphylococcus aureus ATCC 29213 incubated for 16 to 18 hrs by broth dilution method; format: functional; conditions: time 16-18 hrs
Staphylococcus aureus [2] = experiment: Antibacterial activity against methicillin resistant Staphylococcus aureus N315 incubated for 16 to 18 hrs by broth dilution method; format: functional; conditions: time 16-18 hrs
Staphylococcus aureus [3] = experiment: Antibacterial activity against methicillin resistant Staphylococcus aureus M11 incubated for 16 to 18 hrs by broth dilution method; format: functional; conditions: time 16-18 hrs
Staphylococcus aureus [4] = experiment: Antibacterial activity against methicillin resistant Staphylococcus aureus M12 incubated for 16 to 18 hrs by broth dilution method; format: functional; conditions: time 16-18 hrs
Staphylococcus aureus [5] = experiment: Antibacterial activity against methicillin resistant Staphylococcus aureus M13 incubated for 16 to 18 hrs by broth dilution method; format: functional; conditions: time 16-18 hrs
Staphylococcus aureus [6] = experiment: Antibacterial activity against methicillin resistant Staphylococcus aureus M14 incubated for 16 to 18 hrs by broth dilution method; format: functional; conditions: time 16-18 hrs
Staphylococcus aureus [7] = experiment: Antibacterial activity against methicillin resistant Staphylococcus aureus M16 incubated for 16 to 18 hrs by broth dilution method; format: functional; conditions: time 16-18 hrs
Staphylococcus aureus [8] = experiment: Antibacterial activity against methicillin resistant Staphylococcus aureus M17 incubated for 16 to 18 hrs by broth dilution method; format: functional; conditions: time 16-18 hrs
Staphylococcus aureus [9] = experiment: Antibacterial activity against methicillin resistant Staphylococcus aureus M20 incubated for 16 to 18 hrs by broth dilution method; format: functional; conditions: time 16-18 hrs
Staphylococcus aureus [10] = experiment: Antibacterial activity against methicillin resistant Staphylococcus aureus M21 incubated for 16 to 18 hrs by broth dilution method; format: functional; conditions: time 16-18 hrs
Staphylococcus aureus [11] = experiment: Antibacterial activity against methicillin resistant Staphylococcus aureus M22 incubated for 16 to 18 hrs by broth dilution method; format: functional; conditions: time 16-18 hrs
Staphylococcus aureus [12] = experiment: Antibacterial activity against methicillin resistant Staphylococcus aureus M23 incubated for 16 to 18 hrs by broth dilution method; format: functional; conditions: time 16-18 hrs
Escherichia coli = experiment: Antibacterial activity against Escherichia coli ATCC 25922 incubated for 16 to 18 hrs by broth dilution method; format: functional; conditions: time 16-18 hrs
[13] = Hemolytic activity in sheep RBC incubated for 1 hr; format: toxicity, cell-based, Ovis aries, Erythrocyte; conditions: sheep red blood cells (erythrocytes)
[14] = Selectivity index, ratio of HC50 for sheep RBC to MIC for Staphylococcus aureus ATCC 29213; format: toxicity; conditions: sheep red blood cells, read-out: Selectivity Index

| Compound | MIC (Staphylococcus aureus [1]) [µg/mL] | MIC (Staphylococcus aureus [2]) [µg/mL] | MIC (Staphylococcus aureus [3]) [µg/mL] | MIC (Staphylococcus aureus [4]) [µg/mL] | MIC (Staphylococcus aureus [5]) [µg/mL] | MIC (Staphylococcus aureus [6]) [µg/mL] | MIC (Staphylococcus aureus [7]) [µg/mL] | MIC (Staphylococcus aureus [8]) [µg/mL] | MIC (Staphylococcus aureus [9]) [µg/mL] | MIC (Staphylococcus aureus [10]) [µg/mL] | MIC (Staphylococcus aureus [11]) [µg/mL] | MIC (Staphylococcus aureus [12]) [µg/mL] | MIC (Escherichia coli) [µg/mL] | HC50 at 1 h [13] [µg/mL] | selectivity ratio [14] |
| --- | --- | --- | --- | --- | --- | --- | --- | --- | --- | --- | --- | --- | --- | --- | --- |
| C=CCc1cc(-c2ccc(OCCC[N+](C)(C)CC(=O)NCCCC)c(CC=C)c2)c2oc(-c3ccc(F)c(F)c3)nc2c1.[Br-] | 8 | 32 | 8 | 8 | 4 | 4 | 4 | 4 | 4 | 4 | 16 | 4 | > 128 | 222 | 27.7 |
| C=CCc1cc(-c2ccc(OCCC[N+](C)(C)CC(=O)NCCCC)c(CC=C)c2)c2oc(-c3cc(Br)ccc3F)nc2c1.[Br-] | 64 | 32 | 8 | 8 | 4 | 4 | 8 | 4 | 4 | 4 | 8 | 8 | 128 | > 320 | > 5 |
| C=CCc1cc(-c2ccc(OCCC[N+](C)(C)CC(=O)NCCCC)c(CC=C)c2)c2oc(-c3ccccc3)nc2c1.[Br-] | 8 | 16 | 2 | 2 | 2 | 4 | 4 | 1 | 2 | 2 | 2 | 2 | > 128 | > 160 | > 20 |
| C=CCc1cc(-c2ccc(OCCC[N+](C)(C)CC(=O)NCCCC)c(CC=C)c2)c2oc(-c3ccc(Br)cc3)nc2c1.[Br-] | 64 | 64 | 8 | 16 | 8 | 8 | 8 | 16 | 8 | 8 | 16 | 8 | 128 | > 320 | > 5 |
| C=CCc1cc(-c2ccc(OCCC[N+](C)(C)CC(=O)NCCCC)c(CC=C)c2)c2oc(-c3cc(F)c(F)c(F)c3)nc2c1.[Br-] | > 128 | 64 | 32 | 128 | 32 | 32 | 32 | 64 | 64 | 32 | 64 | 32 | > 128 | 64.4 | < 0.5 |
| C=CCc1cc(-c2ccc(OCCC[N+](C)(C)CC(=O)NCCCC)c(CC=C)c2)c2oc(-c3cc(Br)cc(Br)c3)nc2c1.[Br-] | 128 | 128 | 128 | > 128 | > 128 | 128 | 128 | 128 | > 128 | 64 | 128 | 128 | 128 | 205 | 1.6 |
| C=CCc1cc(-c2ccc(OCCC[N+](C)(C)CC(=O)NCCCC)c(CC=C)c2)c2oc(-c3ccc(Br)cc3Br)nc2c1.[Br-] | 128 | 64 | 32 | 16 | 16 | 32 | 16 | 64 | 16 | 16 | 32 | 32 | > 128 | 170 | 1.3 |
| C=CCc1ccc(O)c(-c2ccc(O)c(CC=C)c2)c1 [HONOKIOL] | 64 (≈ 240 µM) | 8 (≈ 30 µM) | 16 (≈ 60.1 µM) | 8 (≈ 30 µM) | 16 (≈ 60.1 µM) | 16 (≈ 60.1 µM) | 16 (≈ 60.1 µM) | 16 (≈ 60.1 µM) | 8 (≈ 30 µM) | 16 (≈ 60.1 µM) | 16 (≈ 60.1 µM) | 16 (≈ 60.1 µM) | > 128 | > 80 | > 1.25 |
| C=CCc1cc(-c2ccc(OCCC[N+](C)(C)CC(=O)NCCCC)c(CC=C)c2)c2oc(-c3ccc(C(F)(F)F)cc3)nc2c1.[Br-] | 128 | 128 | 8 | 16 | 8 | 16 | 8 | 32 | 8 | 8 | 32 | 8 | 128 | 59.5 | 0.5 |
| C=CCc1cc(-c2ccc(OCCC[N+](C)(C)CC(=O)NCCCC)c(CC=C)c2)c2oc(-c3ccc(Cl)c(Cl)c3)nc2c1.[Br-] | 128 | 128 | 64 | 32 | 16 | 32 | 32 | 128 | 32 | 32 | 64 | 64 | > 128 | 87.6 | 0.7 |
